Laboratory results from patent US20240352022A1, “GROUP OF IMB-C5 SERIES COMPOUNDS HAVING ANTI-CORONAVIRUS ACTIVITY AND APPLICATION THEREOF” (priority 2021, published 2024).

What was measured:
HCoV-229E [1] = experiment: anti-HCoV-229E activity in Huh7 cells by cytopathic effect (CPE) assay; assay type: cell-based, Human coronavirus HCoV-229E; conditions: Human coronavirus 229E, Huh-7, HCoV-229E 100 TCID50 in Huh7 cells, about 48 h
HCoV-229E [2] = experiment: N protein level of HCoV-229E in Huh7 cells (Western Blotting); assay type: cell-based, Human coronavirus HCoV-229E; conditions: 24 h
in vitro [3] = conditions: human
HCoV-229E [4] = experiment: anti-HCoV-229E activity in Huh7.5 cells by cytopathic effect (CPE) assay; assay type: cell-based, Human coronavirus HCoV-229E; conditions: Human coronavirus 229E, HCoV-229E 100 TCID50 in Huh7.5 cells, about 48 h
HCoV-229E [5] = experiment: mRNA level of HCoV-229E N protein in Huh7 cells (RT-qPCR); assay type: cell-based, Human coronavirus HCoV-229E; conditions: 24 h
HCoV-229E [6] = experiment: dsRNA production during replication of HCoV-229E in Huh7 cells (immunofluorescence assay); assay type: cell-based, Human coronavirus HCoV-229E
HCoV-OC43 [7] = experiment: N protein level of HCoV-OC43 in C3A cells (Western Blotting); assay type: cell-based, Human coronavirus HCoV-OC43; conditions: 24 h
Experimental: The viral N protein level was determined after 24 h.
The effect of IMB-C5 and IMB-85 on N protein level of coronavirus HCoV-OC43 was determined. C3A cells were infected at a viral load of MOI=0.037, and simultaneously administered with IMB-C5 (10 μM), IMB-85 (10 μM, 2 μ, 0.4 μM and 0.08 μM) and MNP (the positive control, 15 μM). After 24 h, the protein was extracted for Western blotting.

HCoV-229E [8] = experiment: N protein level of HCoV-229E in Huh7.5 cells (Western Blotting); assay type: cell-based, Human coronavirus HCoV-229E; conditions: MOI=1, different concentrations, 24 h
[9] = CCK-8 cytotoxicity assay in Huh7 cells; assay type: cell-based; conditions: human, Huh7 hepatocellular carcinoma cells, CCK-8, 48 hours, read-out: TC50
Experimental: (§1) In order to determine the possible cytotoxicity of IMB-C5 and IMB-85, the CCK-8 assay was first used to detect the effect of the two compounds at different concentrations on viability of different cells 48 hours after administration.

[10] = CCK-8 cytotoxicity assay in Huh7.5 cells; assay type: cell-based; conditions: human, Huh7.5 hepatocellular carcinoma cells, CCK-8, 48 hours, read-out: TC50
Experimental: as §1

HCoV-229E [11] = experiment: time-of-addition experiment, HCoV-229E in Huh7 cells (Western blotting and immunofluorescence); assay type: cell-based, Human coronavirus HCoV-229E; design: dose or concentration left out as unconfirmed
HCoV-229E [12] = experiment: mRNA level of HCoV-229E N protein in Huh7.5 cells (RT-qPCR); assay type: cell-based, Human coronavirus HCoV-229E; conditions: MOI=0.035, three concentrations, 24 h
HCoV-OC43 [13] = experiment: mRNA level of HCoV-OC43 N protein in C3A cells (RT-qPCR); assay type: cell-based, Human coronavirus HCoV-OC43; conditions: MOI=0.023, three concentrations, 24 h
HCoV-OC43 [14] = experiment: time-of-addition experiment, HCoV-OC43 in C3A cells (immunofluorescence assay); assay type: cell-based, Human coronavirus HCoV-OC43; conditions: 50 μM
[15] = from reference [5]; cited from earlier work
in vitro [16] = conditions: human; remark: listed apart in the source
in vitro [17] = conditions: African green monkey
[18] = MOI=17, IMB-85 3, 0.6 and 0.12 μM

SMILES | EC50 (HCoV-229E [1]) [µM] | N protein level of HCoV-229E (HCoV-229E [2]; MOI=1, 5 μM compound) | CC50 (in vitro [3]) [µM] | EC50 (HCoV-229E [4]) [µM] | CC50 (in vitro [16]) [µM] | also measured
Cn1c(=O)c2c(nc(NCCO)n2Cc2cccc(Cl)c2)n(C)c1=O [IMB-2-5, 7-(3-chlorobenzyl)-8-((2-hydroxyethyl)amino)-1,3-dimethyl-3,7-dihydro-1H-purine-2,6-dione] | 1.33 | inhibited HCoV-229E in Huh7 cells to different degrees | 200 | – | – | –
Cn1c(=O)c2c(nc(NCCO)n2Cc2ccc(OC(F)F)cc2)n(C)c1=O [IMB-2-8, 7-(4-(difluoromethoxy)benzyl)-8-((2-hydroxyethyl)amino)-1,3-dimethyl-3,7-dihydro-1H-purine-2,6-dione] | 2.47 | inhibited HCoV-229E in Huh7 cells to different degrees | > 200 | – | – | –
Cn1c(=O)c2c(nc(NCCO)n2Cc2ccc(Cl)cc2)n(C)c1=O [IMB-2-14] | 1.43 | inhibited HCoV-229E in Huh7 cells to different degrees | 200 | – | – | –
Cn1c(=O)c2c(nc(NCCO)n2CC2CCOCC2)n(C)c1=O [IMB-3-19, ((2-hydroxyethyl)amino)-1,3-dimethyl-7-((tetrahydro-2H-pyran-4-yl)methyl)-3,7-dihydro-1H-purine-2,6-dione] | 1.88 | inhibited HCoV-229E in Huh7 cells to different degrees | > 200 | – | – | –
Cc1ccccc1Cn1c(NCCO)nc2c1c(=O)n(C)c(=O)n2C [IMB-68, 8-((2-hydroxyethyl)amino)-1,3-dimethyl-7-(2-methylbenzyl)-3,7-dihydro-1H-purine-2,6-dione] | 1.43 | inhibited HCoV-229E in Huh7 cells to different degrees | 200 | – | – | –
CCCCc1ccc(Cn2c(NCCO)nc3c2c(=O)n(C)c(=O)n3C)cc1 [IMB-85, 7-(4-butylbenzyl)-8-((2-hydroxyethyl)amino)-1,3-dimethyl-3,7-dihydro-1H-purine-2,6-dione] | 0.09 | best activity in decreasing HCoV-229E N protein level | – | 4.05 | – | mRNA level of HCoV-229E N protein (HCoV-229E [5]; [18]): decreased mRNA and protein level of HCoV-229E N protein in Huh7 cells in a dose-dependent manner; dsRNA production during replication of HCoV-229E (HCoV-229E [6]; MOI=17, 24 h): inhibited dsRNA production; N protein level of HCoV-OC43 (HCoV-OC43 [7]; MOI=0.037, IMB-85 10, 2, 0.4 and 0.08 μM): decreased the HCoV-OC43 N protein level in C3A cells in a dose-dependent manner; N protein level of HCoV-229E (HCoV-229E [2]; MOI=1, different concentrations): decreased the HCoV-229E N protein level in Huh7 cells in a dose-dependent manner; protein level of HCoV-229E N protein (HCoV-229E [2]; [18]): decreased mRNA and protein level of HCoV-229E N protein in Huh7 cells in a dose-dependent manner; N protein level of HCoV-229E (HCoV-229E [8]): decreased the HCoV-229E N protein level in Huh7.5 cells in a dose-dependent manner; CC50 at 48 h [9]: > 200 µM; CC50 at 48 h [10]: > 200 µM; antiviral effect (N protein and dsRNA level), time of addition (HCoV-229E [11]; IMB-85, HCoV-229E MOI=10, administered 6 h or more after infection): diminished antiviral effect; antiviral effect (N protein and dsRNA level), time of addition (HCoV-229E [11]; IMB-85, HCoV-229E MOI=10, at the time of infection or within 1-5 h after infection): significant inhibitory effect on virus
Cn1c(=O)c2c(nc(NCCO)n2Cc2cccc(OC(F)(F)F)c2)n(C)c1=O [IMB-92, 8-((2-hydroxyethyl)amino)-1,3-dimethyl-7-(3-(trifluoromethoxy)benzyl)-3,7-dihydro-1H-purine-2,6-dione] | 0.64 | inhibited HCoV-229E in Huh7 cells to different degrees | 144 | – | – | –
Cn1c(=O)c2c(nc(NCCO)n2Cc2c(F)cccc2F)n(C)c1=O [IMB-93, 7-(2,6-difluorobenzyl)-8-((2-hydroxyethyl)amino)-1,3-dimethyl-3,7-dihydro-1H-purine-2,6-dione] | 2.47 | inhibited HCoV-229E in Huh7 cells to different degrees | > 200 | – | – | –
COc1cccc(Cn2c(NCCO)nc3c2c(=O)n(C)c(=O)n3C)c1 [IMB-C5] | 6.57 | – | > 139 | 26.8 | > 139 | mRNA level of HCoV-229E N protein (HCoV-229E [5]; MOI=0.035, three concentrations): decreased mRNA level of HCoV-229E N protein in both Huh7 and Huh7.5 cells in a dose-dependent manner; mRNA level of HCoV-229E N protein (HCoV-229E [12]): decreased mRNA level of HCoV-229E N protein in both Huh7 and Huh7.5 cells in a dose-dependent manner; dsRNA production during replication of HCoV-229E (HCoV-229E [6]; MOI=0.035, gradient concentrations, 24 h): had an inhibitory effect on dsRNA production; dsRNA production during replication of HCoV-229E (HCoV-229E [6]; MOI=17, 24 h): inhibited dsRNA production; mRNA level of HCoV-OC43 N protein (HCoV-OC43 [13]): decreased mRNA level of HCoV-OC43 N protein in C3A cells in a dose-dependent manner; N protein level of HCoV-OC43 (HCoV-OC43 [7]; MOI=0.023, three concentrations): inhibited the expression of the viral N protein in a dose-dependent manner; CC50 at 48 h [9]: > 200 µM; CC50 at 48 h [10]: > 200 µM; antiviral effect, time of addition (HCoV-OC43 [14]; HCoV-OC43 MOI=0.28, administered 1 h to 4 h after infection): better antiviral effect; antiviral effect, time of addition (HCoV-OC43 [14]; HCoV-OC43 MOI=0.28, administered 6 h or more after infection): greatly diminished antiviral effect; antiviral effect, time of addition (HCoV-OC43 [14]; HCoV-OC43 MOI=0.28, administered at the time of virus infection): most significant inhibitory effect on virus; effect on blood lipids and atherosclerotic plaque formation [15]: good effect on lowering blood lipids and inhibiting atherosclerotic plaque formation; CC50 (in vitro [17]): 493 µM
COc1cccc(Cn2c(N[C@@H](CO)C(C)C)nc3c2c(=O)n(C)c(=O)n3C)c1 [IMB-ZH-12, (R)-8-((1-hydroxy-3-methylbutan-2-yl)amino)-7-(3-methoxybenzyl)-1,3-dimethyl-3,7-dihydro-1H-purine-2,6-dione] | 59.9 | – | > 125 | 59.9 | > 125 | –
Cn1c(=O)c2c(nc(NCCO)n2Cc2cccc(Cl)c2F)n(C)c1=O [IMB-ZHB-4x, 7-(3-chloro-2-fluorobenzyl)-8-((2-hydroxyethyl)amino)-1,3-dimethyl-3,7-dihydro-1H-purine-2,6-dione] | 3.78 | – | 91 | 8.42 | 91 | –
Cn1c(=O)c2c(nc(NCCO)n2Cc2ccccc2)n(C)c1=O [IMB-ZHB-13x, 7-benzyl-8-((2-hydroxyethyl)amino)-1,3-dimethyl-3,7-dihydro-1H-purine-2,6-dione] | 5.62 | – | > 152 | 38.5 | > 152 | –
COC(=O)CNc1nc2c(c(=O)n(C)c(=O)n2C)n1Cc1cccc(OC)c1 [IMB-ZHC-2, methyl(7-(3-methoxybenzyl)-1,3-dimethyl-2,6-dioxo-2,3,6,7-tetrahydro-1H-purin-8-yl)glycinate] | 28.7 | – | > 129 | 43.1 | > 129 | –
COc1cccc(Cn2c(NC[C@@H](C)O)nc3c2c(=O)n(C)c(=O)n3C)c1 [IMB-ZHC-6, (R)-8-((2-hydroxypropyl)amino)-7-(3-methoxybenzyl)-1,3-dimethyl-3,7-dihydro-1H-purine-2,6-dione] | 12.6 | – | > 134 | 58.8 | > 134 | –
COc1cccc(Cn2c(NC[C@H](C)O)nc3c2c(=O)n(C)c(=O)n3C)c1 [IMB-ZHC-7, (S)-8-((2-hydroxypropyl)amino)-7-(3-methoxybenzyl)-1,3-dimethyl-3,7-dihydro-1H-purine-2,6-dione] | 19.2 | – | > 134 | 44.7 | > 134 | –
COc1cccc(Cn2c(NCC(N)=O)nc3c2c(=O)n(C)c(=O)n3C)c1 [IMB-ZHC-15, ((7-(3-methoxybenzyl)-1,3-dimethyl-2,6-dioxo-2,3,6,7-tetrahydro-1H-purin-8-yl)amino)acetamide] | 44.8 | – | > 134 | 58.9 | > 134 | –
CC(C)C(=O)OC[C@H]1O[C@@H](n2ccc(NO)nc2=O)[C@H](O)[C@@H]1O [Molnupiravir, reference compound] | 1.92 | – | > 200 | 4.28 | > 200 | –
